This is an account of results in ChEMBL document CHEMBL6182944, “Substrate Specificity of the Organic Cation Transporters MATE1 and MATE2K and Functional Overlap with OCT1 and OCT2” (J Med Chem, 2025).

Where only a bound is given, the exact number is not on record here.

In data set [1] the target is T1, Multidrug and toxin extrusion protein 1 (Homo sapiens, UniProt Q96FL8).
T1 sequence (Q96FL8 whole entry): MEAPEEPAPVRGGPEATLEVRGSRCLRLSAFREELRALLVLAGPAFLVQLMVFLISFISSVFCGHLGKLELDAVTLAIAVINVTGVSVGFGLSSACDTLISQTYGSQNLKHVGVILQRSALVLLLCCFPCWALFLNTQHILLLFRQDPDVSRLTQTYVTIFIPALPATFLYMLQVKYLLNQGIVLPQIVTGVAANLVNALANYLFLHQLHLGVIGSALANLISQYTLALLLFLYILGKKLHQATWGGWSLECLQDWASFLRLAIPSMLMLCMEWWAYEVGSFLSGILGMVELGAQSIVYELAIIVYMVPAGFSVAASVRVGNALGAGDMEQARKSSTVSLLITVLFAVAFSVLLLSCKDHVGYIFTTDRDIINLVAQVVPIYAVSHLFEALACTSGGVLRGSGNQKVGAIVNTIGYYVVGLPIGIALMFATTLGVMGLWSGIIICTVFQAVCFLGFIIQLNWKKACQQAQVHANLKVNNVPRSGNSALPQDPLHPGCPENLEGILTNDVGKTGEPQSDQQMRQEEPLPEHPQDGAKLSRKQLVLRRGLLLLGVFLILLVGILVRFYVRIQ
In words: Substrate activity at MATE1 (unknown origin) expressed in HEK293 cells assessed as ratio of uptake by the enantiomer with higher value to enantiomer with lower value at 2.5 uM measured after 1 min by HPLC-MS/MS analysis. In kind it is cell-based. Particulars: hek293, 1 min.

For data set [2], the target named is T2, Multidrug and toxin extrusion protein 2 (Homo sapiens, UniProt Q86VL8).
T2 sequence (Q86VL8 whole entry): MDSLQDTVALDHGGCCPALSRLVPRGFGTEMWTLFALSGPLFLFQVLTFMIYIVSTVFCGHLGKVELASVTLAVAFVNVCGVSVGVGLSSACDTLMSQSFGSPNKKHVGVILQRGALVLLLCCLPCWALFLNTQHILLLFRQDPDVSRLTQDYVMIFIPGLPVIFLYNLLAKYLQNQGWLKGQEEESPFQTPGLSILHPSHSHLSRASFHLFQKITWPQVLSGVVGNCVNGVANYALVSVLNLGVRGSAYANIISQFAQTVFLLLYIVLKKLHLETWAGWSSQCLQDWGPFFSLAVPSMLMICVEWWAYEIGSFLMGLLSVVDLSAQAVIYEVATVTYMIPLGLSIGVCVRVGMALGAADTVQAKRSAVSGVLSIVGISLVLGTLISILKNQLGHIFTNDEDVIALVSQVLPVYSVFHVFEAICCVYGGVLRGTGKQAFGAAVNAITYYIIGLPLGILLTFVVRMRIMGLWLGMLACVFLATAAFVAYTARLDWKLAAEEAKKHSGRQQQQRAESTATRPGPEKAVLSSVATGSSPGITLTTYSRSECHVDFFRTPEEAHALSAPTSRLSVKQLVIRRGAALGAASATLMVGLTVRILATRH
The experiment in a line: Substrate activity at MATE2-K (unknown origin) expressed in HEK293 cells assessed as ratio of uptake by the enantiomer with higher value to enantiomer with lower value at 2.5 uM measured after 1 min by HPLC-MS/MS analysis. In kind it is cell-based. The settings on record: hek293, 1 min.

The next data set concerns the target T3, MATE1 (Homo sapiens, UniProt Q96FL8).
T3 sequence (Q96FL8 whole entry): T1 sequence (Q96FL8 whole entry)
In words: in vitro.

The next data set deals with T4, MATE2-K (Homo sapiens, UniProt Q86VL8).
T4 sequence (Q86VL8 whole entry): T2 sequence (Q86VL8 whole entry)
In words: in vitro.

Data set [3] addresses T1, Multidrug and toxin extrusion protein 1. The experiment in a line: Substrate activity at MATE1 (unknown origin) expressed in HEK293 cells assessed as intrinsic clearance by measuring ratio of Vmax (maximum transport velocity) over Km measured per mg of protein by HPLC-MS/MS analysis. In kind it is cell-based.
The target is the same in data set [4]. The experiment in a line: Substrate activity at MATE1 (unknown origin) expressed in HEK293 cells assessed as Vmax (maximum transport velocity) by HPLC-MS/MS analysis. Format: cell-based.
In data set [5] the target is T2, Multidrug and toxin extrusion protein 2. The experiment in a line: Substrate activity at MATE2-K (unknown origin) expressed in HEK293 cells assessed as intrinsic clearance by measuring ratio of Vmax (maximum transport velocity) over Km measured per mg of protein by HPLC-MS/MS analysis. Format: cell-based.
Where [6] appears, read: HEK293 cells expressing MATE2-K.

`O=C(O[C@H]1C[N+]2(CCCOc3ccccc3)CCC1CC2)C(O)(c1cccs1)c1cccs1.[Br-]` (mixture of isomers) [ACLIDINIUM BROMIDE]: the Ratio in data set [1] and in data set [2] was more than 1 each time.

Regarding `C#CCNC1CCc2ccccc21` (racemic), the Ratio in data set [1] and in data set [2] was more than 1 each time.

Regarding `CNCCC(Oc1ccccc1C)c1ccccc1` (racemic), the results for the Ratio in data set [1] and in data set [2] were 1 and more than 1, respectively.

Take `CNCC(O)c1cccc(O)c1` (racemic): the Ratio in data set [1] and in data set [2] was more than 1 throughout.

With `NC1CONC1=O` (racemic), the Ratio in data set [1] was 1; in data set [2], more than 1.

Regarding `CC(C)(C)NCC(O)c1ccc(O)c(CO)c1` (racemic) [ALBUTEROL], the uptake ratio at 1 min, 2.5 µM at MATE1 (HEK293 cells expressing MATE1) and on MATE2-K (setting [6]) was more than 2 each time. Besides, the Ratio in data set [1] and in data set [2] was more than 1 in each case.

In the case of `COc1ccccc1OCCNCC(O)COc1cccc2[nH]c3ccccc3c12` (racemic) [CARVEDILOL], the Ratio is reported as 1 in data set [1] and more than 1 in data set [2].

On to `CN(C)CCCC1(c2ccc(F)cc2)OCc2cc(C#N)ccc21` (racemic) [CITALOPRAM], for which the Ratio in data set [1] and in data set [2] was more than 1 throughout.

For the molecule `Cc1cccc(C)c1OCC(C)N` (racemic) [MEXILETINE], the uptake ratio at 1 min, 2.5 µM on MATE1 (hek293) and on MATE2-K (hek293) was less than 2 each time. For the same molecule, the Ratio in data set [1] and in data set [2] was more than 1 each time.

As for `COc1ccc(C(CN(C)C)C2(O)CCCCC2)cc1` (racemic) [VENLAFAXINE], the Ratio in data set [1] and in data set [2] was more than 1 throughout.

One may read the Vmax as the rate approached at saturating substrate. For the molecule `CC(CCc1ccc(O)cc1)NCCc1ccc(O)c(O)c1` (stereo unspecified) [DOBUTAMINE], the uptake ratio at 1 min, 2.5 µM at MATE1 (HEK293 cells expressing MATE1) and on MATE2-K (setting [6]) was more than 2 throughout. The CL in data set [3] was determined as 29.2 µL/min; in data set [5] it was 5.71 µL/min. Moreover, in data set [4], the Vmax is recorded as 2586 pmol/min.

With `NCCc1ccc(O)c(O)c1` [DOPAMINE], the uptake ratio at 1 min, 2.5 µM on MATE1 (hek293) and at MATE2-K (hek293) was more than 2 in each case. Also, the CL in data set [3] came to 19.2 µL/min; in data set [5], 1.27 µL/min. In addition, the Vmax in data set [4] is 10148 pmol/min.

As to `CN(C)CCC=C1c2ccccc2COc2ccccc21` [DOXEPIN], the Ratio in data set [1] and in data set [2] was 1 each time.

As to `Nc1nc(=O)n([C@@H]2CS[C@H](CO)O2)cc1F` [EMTRICITABINE], the values for the CL in data set [3] and in data set [5] were 4.56 µL/min and 3.02 µL/min, respectively. In addition, the Vmax in data set [4] is reported as 4523 pmol/min.

With `CNC[C@H](O)c1ccc(O)c(O)c1` [EPINEPHRINE], the uptake ratio at 1 min, 2.5 µM at MATE1 (hek293) and on MATE2-K (hek293) was more than 2 in each case. Moreover, the figures for the CL in data set [3] and in data set [5] were 21.1 µL/min and 1.97 µL/min, respectively. For the same molecule, the maximal velocity (Vmax) in data set [4] was found to be 22773 pmol/min.

As for `C[C@H]1N=C(N(C)C)N=C(N)N1` [IMEGLIMIN], the uptake ratio at 1 min, 2.5 µM on MATE1 (HEK293 cells expressing MATE1) and at MATE2-K (setting [6]) was more than 2 in each case. The CL in data set [3] is 108 µL/min; in data set [5], 34.5 µL/min. Besides, in data set [4], the Vmax was 6242 pmol/min.

For the molecule `C[N@+]1(CC2CC2)CC[C@]23c4c5ccc(O)c4O[C@H]2C(=O)CC[C@@]3(O)[C@H]1C5` [METHYLNALTREXONE], in data set [4], the Vmax is reported as 56 pmol/min.

On to `CC(=O)Nc1ccc(OCC(O)CNC(C)C)cc1` (stereo unspecified) [PRACTOLOL], for which the uptake ratio at 1 min, 2.5 µM at MATE1 (hek293) and on MATE2-K (hek293) was more than 2 in each case.

With `[H]/N=C(\N/C(=N/[H])Nc1ccc(Cl)cc1)NC(C)C` [PROGUANIL], the uptake ratio at 1 min, 2.5 µM at MATE1 (HEK293 cells expressing MATE1) and on MATE2-K (setting [6]) was more than 2 throughout.

As for `CC(C)[N+](C)(CCOC(=O)C1c2ccccc2Oc2ccccc21)C(C)C` [PROPANTHELINE], the uptake ratio at 1 min, 2.5 µM on MATE1 (HEK293 cells expressing MATE1) and at MATE2-K (setting [6]) was more than 2 each time.
